In patent US20230023559A1, “ARYLMETHYLENE HETEROCYCLIC COMPOUNDS AS KV1.3 POTASSIUM SHAKER CHANNEL BLOCKERS” (D. E. Shaw Research, LLC, priority 2019, published 2023):

Experiments:
hERG channel = hERG channel (Homo sapiens, UniProt Q12809); test: hERG electrophysiology, automated whole-cell patch clamp (Patchliner)
Kv1.3 potassium channel = molecular target: T1, Kv1.3 potassium channel (Homo sapiens, UniProt P22001); test: Kv1.3 potassium channel blocker activity, automated whole-cell patch clamp (Patchliner); format: cell-based; conditions: CHO-K1 cells stably expressing Kv1.3; whole cell current inhibition; read-out: Kv1.3_IC50
T1 construct: expressed in transfected cells
Summary of the method: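 Peak-current block was recorded on stable Kv1.3 CHO-K1 cells by automated patch clamp, stepping from a −90 mV holding potential to +40 mV for 100 ms at 0.1 Hz with 10 s breaks between trains. Online P/4 leak subtraction, 10 kHz sampling; compound exposure under 10 s per train.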

Chain of hERG channel (Q12809 whole entry): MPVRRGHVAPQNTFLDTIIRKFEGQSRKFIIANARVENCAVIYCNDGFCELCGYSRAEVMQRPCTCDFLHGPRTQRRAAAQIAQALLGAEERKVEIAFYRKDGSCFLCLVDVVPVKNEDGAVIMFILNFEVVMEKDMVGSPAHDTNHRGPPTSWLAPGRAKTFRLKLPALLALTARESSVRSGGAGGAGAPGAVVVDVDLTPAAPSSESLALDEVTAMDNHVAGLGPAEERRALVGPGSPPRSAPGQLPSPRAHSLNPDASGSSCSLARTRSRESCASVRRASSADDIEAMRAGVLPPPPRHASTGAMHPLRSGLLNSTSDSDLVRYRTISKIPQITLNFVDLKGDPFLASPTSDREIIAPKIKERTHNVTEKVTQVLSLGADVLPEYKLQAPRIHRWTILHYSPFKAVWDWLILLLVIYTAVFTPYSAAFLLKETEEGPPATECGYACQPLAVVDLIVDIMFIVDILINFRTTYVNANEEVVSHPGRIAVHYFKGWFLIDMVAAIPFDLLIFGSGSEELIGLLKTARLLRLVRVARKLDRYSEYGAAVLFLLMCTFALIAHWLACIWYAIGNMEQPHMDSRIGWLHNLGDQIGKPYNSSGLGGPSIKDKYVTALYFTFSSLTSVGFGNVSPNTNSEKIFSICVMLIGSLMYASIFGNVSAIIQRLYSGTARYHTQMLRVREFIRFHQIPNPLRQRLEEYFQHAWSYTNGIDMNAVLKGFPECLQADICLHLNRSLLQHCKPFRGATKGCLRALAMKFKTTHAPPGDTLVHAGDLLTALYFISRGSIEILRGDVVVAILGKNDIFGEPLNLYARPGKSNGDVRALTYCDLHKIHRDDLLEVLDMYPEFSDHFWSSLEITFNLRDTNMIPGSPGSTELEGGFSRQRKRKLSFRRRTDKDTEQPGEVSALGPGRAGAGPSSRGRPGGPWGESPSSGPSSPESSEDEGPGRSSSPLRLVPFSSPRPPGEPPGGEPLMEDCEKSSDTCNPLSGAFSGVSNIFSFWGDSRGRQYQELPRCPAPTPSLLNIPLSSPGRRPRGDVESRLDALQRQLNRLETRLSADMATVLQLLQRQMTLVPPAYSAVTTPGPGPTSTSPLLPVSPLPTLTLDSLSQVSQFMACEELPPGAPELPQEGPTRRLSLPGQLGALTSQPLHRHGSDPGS
T1 sequence (P22001 whole entry): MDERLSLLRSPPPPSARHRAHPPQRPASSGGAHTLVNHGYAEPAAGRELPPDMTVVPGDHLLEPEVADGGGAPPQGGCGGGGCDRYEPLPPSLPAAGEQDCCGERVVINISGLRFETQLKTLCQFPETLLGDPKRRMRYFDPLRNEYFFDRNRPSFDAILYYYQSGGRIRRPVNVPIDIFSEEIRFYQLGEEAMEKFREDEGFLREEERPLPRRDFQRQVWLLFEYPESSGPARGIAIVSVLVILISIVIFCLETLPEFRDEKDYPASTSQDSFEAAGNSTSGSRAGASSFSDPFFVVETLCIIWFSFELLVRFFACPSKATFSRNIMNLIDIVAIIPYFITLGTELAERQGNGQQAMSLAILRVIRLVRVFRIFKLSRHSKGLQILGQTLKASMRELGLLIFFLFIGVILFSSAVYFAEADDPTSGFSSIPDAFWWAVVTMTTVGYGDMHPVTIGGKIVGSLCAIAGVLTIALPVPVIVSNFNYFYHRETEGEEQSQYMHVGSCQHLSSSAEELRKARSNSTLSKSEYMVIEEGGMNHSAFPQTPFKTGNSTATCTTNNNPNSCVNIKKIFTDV

IC50 (Kv1.3 potassium channel) [µM] | Structure (SMILES) | IC50 (hERG channel) [µM]
< 0.5 | N[C@@H](c1cc(Cl)c(Cl)cc1O)C1CCN(C(=O)[C@H](O)CO)CC1 (single isomer, unassigned) [Compound 119] | > 30
< 0.5 | C[C@H](O)C(=O)N1CCC([C@@H](N)c2cc(Cl)c(Cl)cc2O)CC1 [Compound 102, (S)-1-(4-((R)-amino(4,5-dichloro-2-hydroxyphenyl)methyl)piperidin-1-yl)-2-hydroxypropan-1-one] | > 30
< 0.5 | NC(c1cc(Cl)c(Cl)cc1O)C1CCN(C(=O)[C@H]2CCNC2)CC1 (stereo partly drawn) [Compound 63, (4-(amino(4,5-dichloro-2-hydroxyphenyl)methyl)piperidin-1-yl)((S)-pyrrolidin-3-yl)methanone Trifluoroacetic Acid] | > 30
< 0.5 | N[C@@H](c1cc(Cl)c(Cl)cc1O)C1CCN(C(=O)C2(F)CNC2)CC1 [Compound 114, 2-[(R)-amino[1-(3-fluoroazetidine-3-carbonyl)piperidin-4-yl]methyl]-4,5-dichlorophenol] | > 30
< 10 | CC(=O)N1CC(C(=O)N2CCC([C@@H](N)c3cc(Cl)c(Cl)cc3O)CC2)C1 [Compound 200, 1-(3-[4-[(R)-amino(4,5-dichloro-2-hydroxyphenyl)methyl]piperidine-1-carbonyl]azetidin-1-yl)ethan-1-one] | > 30
< 0.5 | CO[C@H](CO)C(=O)N1CCC([C@@H](N)c2cc(Cl)c(Cl)cc2O)CC1 [Compound 168, (2R)-1-[4-[(R)-amino(4,5-dichloro-2-hydroxyphenyl)methyl]piperidin-1-yl]-3-hydroxy-2-methoxypropan-1-one trifluoroacetic acid] | > 30
< 0.5 | N[C@@H](c1cc(Cl)c(Cl)cc1O)C1CCN(C(=O)C2CNC(=O)C2)CC1 (stereo partly drawn) [Compound 223, 4-[4-[(R)-amino(4,5-dichloro-2-hydroxyphenyl)methyl]piperidine-1-carbonyl] pyrrolidin-2-one trifluoroacetic acid] | > 30
< 0.5 | N[C@@H](c1cc(Cl)c(Cl)cc1O)C1CCN(C(=O)[C@H]2CCNC2)CC1 (single isomer, unassigned) [Compound 85] | > 30
< 10 | NC(=O)N1CCC([C@@H](N)c2cc(Cl)c(Cl)cc2O)CC1 (single isomer, unassigned) [Compound 82] | > 30
< 10 | CC(O)(CO)C(=O)N1CCC([C@@H](N)c2cc(Cl)c(Cl)cc2O)CC1 (stereo partly drawn) [Compound 201, 1-[4-[(R)-amino(4,5-dichloro-2-hydroxyphenyl)methyl]piperidin-1-yl]-2,3-dihydroxy-2-methylpropan-1-one Trifluoroacetic Acid] | > 30
< 0.5 | N[C@@H](c1cc(Cl)c(Cl)cc1O)C1CCN(C(=O)CCO)CC1 [Compound 133, 1-[4-[(R)-amino(4,5-dichloro-2-hydroxyphenyl)methyl]piperidin-1-yl]-3-hydroxypropan-1-one trifluoroacetic acid] | > 30
< 0.5 | O=C([C@@H]1CCNC1)N1CCC([C@@H](O)c2cc(Cl)c(Cl)cc2O)CC1 (single isomer, unassigned) [Compound 116] | > 30

The next lines start with the compound.

Structure (SMILES) | IC50 (Kv1.3 potassium channel) [µM] | IC50 (hERG channel) [µM]
NC(c1cc(Cl)c(Cl)cc1O)C1CCN(c2ncco2)CC1 (stereo not shown) [Compound 74, 2-[amino[1-(1,3-oxazol-2-yl)piperidin-4-yl]methyl]-4,5-dichlorophenol] | < 10 | < 30
Cc1cc([C@H](N)C2CCN(C(=O)[C@H](O)CO)CC2)c(O)cc1Cl [Compound 198, (2R)-1-[4-[(R)-amino(4-chloro-2-hydroxy-5-methylphenyl)methyl]piperidin-1-yl]-2,3-dihydroxypropan-1-one] | < 10 | > 30
CNC(c1cc(Cl)c(Cl)cc1O)C1CCN(C(=O)[C@H](O)CO)CC1 (stereo partly drawn) [Compound 196, (2R)-1-[4-[(4,5-dichloro-2-hydroxyphenyl)(methylamino)methyl]piperidin-1-yl]-2,3-dihydroxypropan-1-one] | < 10 | > 30
O=C([C@@H]1CCNC1)N1CCC(Cc2cc(Cl)c(Cl)cc2O)CC1 [Compound 111, 4,5-dichloro-2-([1-[(3R)-pyrrolidine-3-carbonyl]piperidin-4-yl]methyl)phenol Trifluoroacetic Acid] | < 0.5 | < 30
CN1CCC(C(N)c2cc(Cl)c(Cl)cc2O)CC1 (stereo not shown) [Compound 21, 2-(amino(1-methylpiperidin-4-yl)methyl)-4,5-dichlorophenol] | < 10 | < 30
NC(c1cc(Cl)c(Cl)cc1O)C1CCN(C(=O)c2ccccc2)CC1 (stereo not shown) [Compound 68, 2-[amino(1-benzoylpiperidin-4-yl)methyl]-4,5-dichlorophenol Trifluoroacetic Acid] | < 10 | < 30
Cc1cc(O)c([C@H](N)C2CCN(C(=O)c3cnc4nccn4c3)CC2)cc1Cl [Compound 240, 2-[(R)-amino(1-[imidazo[1,2-a]pyrimidine-6-carbonyl]piperidin-4-yl)methyl]-4-chloro-5-methylphenol Trifluoroacetic Acid] | < 0.5 | > 30
N[C@@H](c1cc(Cl)c(Cl)cc1O)C1CCN(S(=O)(=O)CCO)CC1 [Compound 145, (R)-2-(amino(1-((2-hydroxyethyl)sulfonyl)piperidin-4-yl)methyl)-4,5-dichlorophenol Trifluoroacetic Acid] | < 0.5 | < 30
C[C@@H]1C[C@@H]([C@@H](N)c2cc(Cl)c(Cl)cc2O)CCN1C(=O)[C@H](O)CO [Compound 327, (2R)-1-[(2R,4S)-4-[(R)-amino(4,5-dichloro-2-hydroxyphenyl)methyl]-2-methylpiperidin-1-yl]-2,3-dihydroxypropan-1-one Trifluoroacetic Acid] | < 10 | > 30
NC(c1c(O)ccc2ccccc12)C1CCNCC1 (stereo not shown) [Compound 34, 1-(amino(piperidin-4-yl)methyl)naphthalen-2-ol Trifluoroacetic Acid] | < 30 | > 30
Cc1cc(O)c([C@H](N)C2CCN(C(=O)c3c[nH]c(=O)c(C#N)c3)CC2)cc1Cl [Compound 280, (R)-5-(4-(amino (5-chloro-2-hydroxy-4-methylphenyl)methyl)piperidine-1-carbonyl)-2-oxo-1,2-dihydro-pyridine-3-carbonitrile] | < 0.5 | > 30
COc1cc(C(=O)N2CCC([C@@H](N)c3cc(Cl)c(C)cc3O)CC2)c[nH]c1=O [Compound 251, 5-[4-[(R)-amino(5-chloro-2-hydroxy-4-methylphenyl)methyl]piperidine-1-carbonyl]-3-methoxy-1H-pyridin-2-one Trifluoroacetic Acid] | < 0.5 | 
Cc1cc(O)c([C@H](N)C2CCN(C(=O)c3ccc4c(c3)NC(=O)C4)CC2)cc1Cl [Compound 263, 6-[4-[(R)-amino (5-chloro-2-hydroxy-4-methylphenyl)methyl]piperidine-1-carbonyl]-1,3-dihydroindol-2-one trifluoroacetic acid] | < 0.5 | 
O=C([C@H]1CCNC1)N1CCC[C@H]([C@H](O)c2c(O)ccc(Cl)c2Cl)CC1 (single isomer, unassigned; isomer 2) [Compound 129] | < 10 | 
